Reference: patent US20100261719A1, “CHEMICAL COMPOUNDS” (priority 2007, published 2010)
Converted amounts (≈) assume the structure as drawn. Where two headings read alike, the source gives them in different places.

Columns and labels:
Hin737 = assay: Bacterial susceptibility testing (MIC), Hin737; format: cell-based; details: Haemophilus influenzae, liquid media, 37° C., 24 hours, lowest concentration reducing growth by 80% or more
Description: (§1) Compounds may be tested for antimicrobial activity by susceptibility testing in liquid media in a 96 well format. Compounds may be dissolved in dimethylsulfoxide and tested in 10 doubling dilutions in the susceptibility assays. The organisms used in the assay may be grown overnight on suitable agar media and then suspended in a liquid medium appropriate for the growth of the organism. The suspension may be a 0.5 McFarland and a further 1 in 10 dilution may be advantageously made into the same liquid medium to prepare the final organism suspension in 100 μL. Plates may be incubated under appropriate conditions at 37° C. for 24 hours prior to reading. The Minimum Inhibitory Concentration (MIC) is intended to refer to the lowest drug concentration able to reduce growth by 80% or more.
(§2) Compounds may be evaluated against organisms such as Gram-positive species, including Staphylococcus aureus, Streptococcus pneumoniae, and Streptococcus pyogenes; and Gram-negative species including Haemophilus influenzae, and Moraxella catarrhalis.

Mca445 = assay: Bacterial susceptibility testing (MIC), Mca445; format: cell-based; details: Moraxella catarrhalis, liquid media, 37° C., 24 hours, lowest concentration reducing growth by 80% or more
Description: as §1, §2

Hin446 = assay: Bacterial susceptibility testing (MIC), Hin446; format: cell-based; details: Haemophilus influenzae, liquid media, 37° C., 24 hours, lowest concentration reducing growth by 80% or more
Description: as §1, §2

Spn548 = assay: Bacterial susceptibility testing (MIC), Spn548; format: cell-based; details: Streptococcus pneumoniae, liquid media, 37° C., 24 hours, lowest concentration reducing growth by 80% or more
Description: as §1, §2

[1] = target: Escherichia coli DNA gyrase A/B tetramer (Escherichia coli, UniProt P0AES4+P0AES6); assay: DNA gyrase supercoiling activity fluorescence polarisation assay; format: biochemical
Sequence of Escherichia coli DNA gyrase A/B tetramer (P0AES4 whole entry, one chain of several): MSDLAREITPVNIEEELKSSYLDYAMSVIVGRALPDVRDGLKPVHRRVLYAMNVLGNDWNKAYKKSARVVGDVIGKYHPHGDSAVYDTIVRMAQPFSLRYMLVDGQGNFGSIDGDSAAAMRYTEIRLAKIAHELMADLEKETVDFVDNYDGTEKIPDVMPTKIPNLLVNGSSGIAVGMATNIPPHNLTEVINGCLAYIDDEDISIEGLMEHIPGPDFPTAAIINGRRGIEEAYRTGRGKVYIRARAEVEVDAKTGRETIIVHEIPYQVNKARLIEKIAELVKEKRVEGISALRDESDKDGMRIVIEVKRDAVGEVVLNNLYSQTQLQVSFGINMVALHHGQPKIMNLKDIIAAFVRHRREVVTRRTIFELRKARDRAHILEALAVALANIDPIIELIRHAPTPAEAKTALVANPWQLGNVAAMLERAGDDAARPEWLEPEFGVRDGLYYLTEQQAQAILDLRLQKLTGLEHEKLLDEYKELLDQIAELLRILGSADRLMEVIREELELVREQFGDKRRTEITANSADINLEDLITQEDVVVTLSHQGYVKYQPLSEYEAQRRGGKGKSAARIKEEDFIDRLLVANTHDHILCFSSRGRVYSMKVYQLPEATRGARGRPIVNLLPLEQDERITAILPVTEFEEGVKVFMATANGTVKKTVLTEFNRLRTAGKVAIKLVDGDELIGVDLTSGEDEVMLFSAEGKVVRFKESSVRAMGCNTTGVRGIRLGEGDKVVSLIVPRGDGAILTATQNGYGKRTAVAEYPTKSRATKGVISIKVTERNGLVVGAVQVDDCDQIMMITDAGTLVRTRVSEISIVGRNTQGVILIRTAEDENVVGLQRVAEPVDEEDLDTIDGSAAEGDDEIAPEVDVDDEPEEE
Summary of the method: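 5 nM gyrase supercoils 130 μg/ml relaxed triplex-sequence plasmid with 0.3 mM ATP in Tris pH 7.5/KCl/MgCl2/spermidine buffer, 0.8% DMSO, ~30 min at ambient temperature, 5-10 compound concentrations. Quenched with 40 nM BODIPY-FL triplex probe at pH 3.5; anisotropy read after 60 min (485/535 nm). IC50 by nonlinear regression against no-compound and 5 uM ciprofloxacin controls.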

Sau517 = assay: Bacterial susceptibility testing (MIC), Sau517; format: cell-based; details: Staphylococcus aureus, liquid media, 37° C., 24 hours, lowest concentration reducing growth by 80% or more
Description: as §1, §2

Spy838 = assay: Bacterial susceptibility testing (MIC), Spy838; format: cell-based; details: Streptococcus pyogenes, liquid media, 37° C., 24 hours, lowest concentration reducing growth by 80% or more
Description: as §1, §2

Sau516 = assay: Bacterial susceptibility testing (MIC), Sau516; format: cell-based; details: Staphylococcus aureus, liquid media, 37° C., 24 hours, lowest concentration reducing growth by 80% or more
Description: as §1, §2

Spn538 = assay: Bacterial susceptibility testing (MIC), Spn538; format: cell-based; details: Streptococcus pneumoniae, liquid media, 37° C., 24 hours, lowest concentration reducing growth by 80% or more
Description: as §1, §2

Hin158 = assay: Bacterial susceptibility testing (MIC), Hin158; format: cell-based; details: Haemophilus influenzae, liquid media, 37° C., 24 hours, lowest concentration reducing growth by 80% or more
Description: as §1, §2

## C[C@@H]1CN2c3ccc(C#C[Si](C)(C)C)cc3CC3(C(=O)NC(=O)NC3=O)[C@H]2[C@H](C)O1 (racemic) [Example 1, (2R,4S,4aS)-rel-2,4-Dimethyl-8-((trimethylsilypethynyl)-2,4,4a,6-tetrahydro-1H,1′H-spiro[[1,4]oxazino[4,3-a]quinoline-5,5′-pyrimidine]-2′,4′,6′(3′H)-trion]
Hin737
  MIC: 16 µg/mL (≈ 37.6 µM)
Mca445
  MIC: 2 µg/mL (≈ 4.7 µM)
Hin446
  MIC: 4 µg/mL (≈ 9.4 µM)
Spn548
  MIC: 16 µg/mL (≈ 37.6 µM)
[1]
  IC50: 7.57 µM
Sau517
  MIC: 8 µg/mL (≈ 18.8 µM)
Spy838
  MIC: 16 µg/mL (≈ 37.6 µM)
Sau516
  MIC: 8 µg/mL (≈ 18.8 µM)
Spn538
  MIC: 32 µg/mL (≈ 75.2 µM)
Hin158
  MIC: 0.13 µg/mL (≈ 0.305 µM)

## C[C@@H]1CN2c3c(cc(C(=O)NC4CCN(C(=O)OC(C)(C)C)C4)c(F)c3F)CC3(C(=O)NC(=O)NC3=O)[C@H]2[C@H](C)O1 (relative stereo) [Example 63, tert-Butyl 3-({[2R,4S,4aS)-rel-9,10-difluoro-2,4-dimethyl-2′,4′,6′-trioxo-1,1′,2,3′,4,4′,4a,6′-octahydro-2′H,6H-spiro[1,4-oxazino[4,3-a]quinoline-5,5′-pyrimidin]-8-yl]carbonyl}amino)pyrrolidine-1-carboxylate]
[1]; 5 nM enzyme, 0.3 mM ATP, relaxed plasmid, fluorescence anisotropy readout, read-out: E. coli DNA gyrase supercoiling IC50
  IC50: 6.4 µM

## C[C@@H]1CN2c3ccc(C#Cc4ccncc4)cc3CC3(C(=O)NC(=O)NC3=O)[C@H]2[C@H](C)O1 (relative stereo) [Example 3, (2R,4S,4aS)-rel-2,4-Dimethyl-8-(pyridin-4-ylethynyl)-1,2,4,4a-tetrahydro-2′H,6H-spiro[1,4-oxazino[4,3-a]quinoline-5,5′-pyrimidine]-2′,4′,6′(1′H,3′H)-trione]
[1]
  IC50: 2.48 µM

## C[C@@H]1CN2c3c(cc(C#Cc4ccc(-c5ccn[nH]5)s4)c(F)c3F)CC3(C(=O)NC(=O)NC3=O)[C@H]2[C@H](C)O1 (relative stereo) [Example 17, (2R,4S,4aS)-rel-9,10-Difluoro-2,4-dimethyl-8-{[5-(1H-pyrazol-5-yl)thiophen-2-yl]ethynyl}-1,2,4,4a-tetrahydro-2′H,6H-spiro[1,4-oxazino[4,3-a]quinoline-5,5′-pyrimidine]-2′,4′,6′(1′H,3′H)-trione]
[1]
  IC50: 1.84 µM

## C[C@@H]1CN2c3ccc(NC(=O)Nc4ccccc4)cc3CC3(C(=O)NC(=O)NC3=O)[C@H]2[C@H](C)O1 (relative stereo) [Example 73, 1-[(2R,4S,4aS)-rel-2,4-Dimethyl-2′,4′,6′-trioxo-1,1′,2,3′,4,4′,4a,6′-octahydro-2′H,6H-spiro[1,4-oxazino[4,3-a]quinoline-5,5′-pyrimidin]-8-yl]-3-phenylurea]
[1]
  IC50: 5.02 µM

## C/C(=N\N1CC(=O)NC1=O)c1cc2c(c(F)c1F)N1C[C@@H](C)O[C@@H](C)[C@@H]1C1(C2)C(=O)NC(=O)NC1=O (relative stereo) [Example 52, (2R,4S,4aS)-rel-8-[(1E)-N-(2,4-Dioxoimidazolidin-1-yl)ethanimidoyl]-9,10-difluoro-2,4-dimethyl-1,2,4,4a-tetrahydro-2′H,6H-spiro[1,4-oxazino[4,3-a]quinoline-5,5′-pyrimidine]-2′,4′,6′(1′H,3′H)-trione]
[1]
  IC50: 12.8 µM

## C[C@H]1CN2c3c(cc(C#Cc4nccs4)c(F)c3F)CC3(C(=O)NC(=O)NC3=O)[C@@H]2[C@@H](C)O1 (relative stereo) [Example 8, (2S,4R,4aR)-rel-9,10-Difluoro-2,4-dimethyl-8-(1,3-thiazol-2-ylethynyl)-1,2,4,4a-tetrahydro-2′H,6H-spiro[1,4-oxazino[4,3-a]quinoline-5,5′-pyrimidine]-2′,4′,6′(1′H,3′H)-trione]
[1]
  IC50: 1.29 µM

## C/C(=N\Nc1cnccn1)c1cc2c(c(F)c1F)N1C[C@@H](C)O[C@@H](C)[C@@H]1C1(C2)C(=O)NC(=O)NC1=O (relative stereo) [Example 60, (2R,4S,4aS)-rel-9,10-Difluoro-2,4-dimethyl-8-{(1E)-1-[2-(pyrazin-2-yl)hydrazinylidene]ethyl}-1,2,4,4a-tetrahydro-2′H,6H-spiro[1,4-oxazino[4,3-a]quinoline-5,5′-pyrimidine]-2′,4′,6′(1′H,3′H)-trione]
[1]
  IC50: 0.26 µM

## C[C@@H]1CN2c3c(cc(C#Cc4nccn4C)c(F)c3F)CC3(C(=O)NC(=O)NC3=O)[C@H]2[C@H](C)O1 (racemic) [Example 12, (2R,4S,4aS)-rel-9,10-Difluoro-2,4-dimethyl-8-[(1-methyl-1H-imidazol-2-yl)ethynyl]-1,2,4,4a-tetrahydro-2′H,6H-spiro[1,4-oxazino≡[4,3-a]quinoline-5,5′-pyrimidine]-2′,4′,6′(1′H,3H)-trione]
[1]
  IC50: 0.69 µM

## C[C@H]1CN2c3c(cc(C#Cc4ncccn4)c(F)c3F)CC3(C(=O)NC(=O)NC3=O)[C@@H]2[C@@H](C)O1 (relative stereo) [Example 19, (2S,4R,4aR)-rel-9,10-Difluoro-2,4-dimethyl-8-(pyrimidin-2-ylethynyl)-1,2,4,4a-tetrahydro-2′H,6H-spiro[1,4-oxazino[4,3-a]quinoline-5,5′-pyrimidine]-2′,4′,6′(1′H,3′H)-trione]
[1]
  IC50: 0.52 µM

## C[C@@H]1CN2c3ccc(C#Cc4nccn4C)cc3CC3(C(=O)NC(=O)NC3=O)[C@H]2[C@H](C)O1 (relative stereo) [Example 4, (2R,4S,4aS)-rel-2,4-Dimethyl-8-[(1-methyl-1H-imidazol-2-yl)ethynyl]-1,2,4,4a-tetrahydro-2′H,6H-spiro[1,4-oxazino[4,3-a]quinoline-5,5′-pyrimidine]-2′,4′,6′(1′H,3′H)-trione]
[1]
  IC50: 0.63 µM

## C[C@@H]1CN2c3c(F)cc(C#Cc4cc5ccccc5s4)cc3CC3(C(=O)NC(=O)NC3=O)[C@H]2[C@H](C)O1 (racemic) [Example 41, (2R,4S,4aS)-rel-8-(1-Benzothiophen-2-ylethynyl)-10-fluoro-2,4-dimethyl-1,2,4,4a-tetrahydro-2′H,6H-spiro[1,4-oxazino[4,3-a]quinoline-5,5′-pyrimidine]-2′,4′,6′(1′H,3′H)-trione]
[1]
  IC50: 7.16 µM

## C[C@H]1CN2c3c(cc(C#Cc4nncs4)c(F)c3F)CC3(C(=O)NC(=O)NC3=O)[C@@H]2[C@@H](C)O1 (relative stereo) [Example 7, (2S,4R,4aR)-rel-9,10-Difluoro-2,4-dimethyl-8-(1,3,4-thiadiazol-2-ylethynyl)-1,2,4,4a-tetrahydro-2′H,6H-spiro[1,4-oxazino[4,3-a]quinoline-5,5′-pyrimidine]-2′,4′,6′(1′H,3′H)-trione]
[1]
  IC50: 0.41 µM

## C[C@@H]1CN2c3c(cc(C(=O)NC4CCOC4=O)c(F)c3F)CC3(C(=O)NC(=O)NC3=O)[C@H]2[C@H](C)O1 (relative stereo) [Example 61, (2R,4S,4aS)-rel-9,10-Difluoro-2,4-dimethyl-2′,4′,6′-trioxo-N-(2-oxotetrahydrofuran-3-yl)-1,1′,2,3′,4,4′,4a,6′-octahydro-2′H,6H-spiro[1,4-oxazino[4,3-a]quinoline-5,5′-pyrimidine]-8-carboxamide]
[1]
  IC50: 4.84 µM

## C[C@@H]1CN2c3c(cc(C#Cc4cnccn4)c(F)c3F)CC3(C(=O)NC(=O)NC3=O)[C@H]2[C@H](C)O1 [Example 79, (2R,4S,4aS)-9,10-Difluoro-2,4-dimethyl-8-(pyrazin-2-ylethynyl)-2,4,4a,6-tetrahydro-1H,1′H-spiro[[1,4]oxazino[4,3-a]quinoline-5,5′-pyrimidine]-2′,4′,6′(3′H)-trione]
[1]
  IC50: 0.4 µM

## C[C@H]1CN2c3c(cc(C#Cc4cn(C)cn4)c(F)c3F)CC3(C(=O)NC(=O)NC3=O)[C@@H]2[C@@H](C)O1 (racemic) [Example 13, (2S,4R,4aR)-rel-9,10-Difluoro-2,4-dimethyl-8-[(1-methyl-1H-imidazol-4-yl)ethynyl]-1,2,4,4a-tetrahydro-2′H,6H-spiro[1,4-oxazino[4,3-a]quinoline-5,5′-pyrimidine]-2′,4′,6′-(1′H,3′H)-trione]
[1]
  IC50: 2.17 µM

## C[C@@H]1CN2c3ccc(NC(=O)N4CCCCC4)cc3CC3(C(=O)NC(=O)NC3=O)[C@H]2[C@H](C)O1 (relative stereo) [Example 74, N-[(2R,4S,4aS)-rel-2,4-Dimethyl-2′,4′,6′-trioxo-1,1′,2,3′,4,4′,4a,6′-octahydro-2′H,6H-spiro[1,4-oxazino[4,3-a]quinoline-5,5′-pyrimidin]-8-yl]piperidine-1-carboxamide]
[1]
  IC50: 3.51 µM
